Measured values taken from the supplement of paper PMC11061612.

Assays:
[1] = test system: A375 (Melanoma); assay: Bliss excess, mean over the matrix (fraction); higher = more synergy
Outline: (§1)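 Cell lines in DMEM/F12 or RPMI with 10% FBS were plated in 1536-well plates, held 24 hours at 37°C, 5% CO2, then given two-drug dose matrices for 72 hours (DMSO typically 0.2%). Viability was read by CellTiter-Glo 2.0 luminescence and scaled as inhibition from 0 (vehicle wells) to 1 (blank wells). Combination Emax is the second-highest inhibition in the matrix; Bliss excess is observed combination effect minus expected EA + EB − EA·EB, EA and EB being single-agent effects.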

[2] = test system: BT-474 (Breast Carcinoma); assay: as above
Outline: as §1

[3] = test system: C32 (Melanoma); assay: as above
Outline: as §1

[4] = test system: DK-MG (Glioblastoma); assay: as above
Outline: as §1

[5] = test system: HT-1197 (Bladder Carcinoma); assay: as above
Outline: as §1

[6] = test system: KNS-62 (Squamous Cell Lung Carcinoma); assay: as above
Outline: as §1

[7] = test system: M14 (Melanoma); assay: as above
Outline: as §1

[8] = test system: MDA-MB-175-VII (Breast Carcinoma); assay: as above
Outline: as §1

[9] = test system: NCI-H1048 (Small Cell Lung Carcinoma); assay: as above
Outline: as §1

[10] = test system: NCI-H2023 (Non-Small Cell Lung Carcinoma); assay: as above
Outline: as §1

[11] = test system: NCI-H835 (Other Solid Carcinomas); assay: as above
Outline: as §1

[12] = test system: OVKATE (Ovarian Carcinoma); assay: as above
Outline: as §1

[13] = test system: SK-MEL-24 (Melanoma); assay: as above
Outline: as §1

[14] = test system: SNU-1 (Gastric Carcinoma); assay: as above
Outline: as §1

[15] = test system: SW1463 (Colorectal Carcinoma); assay: as above
Outline: as §1

[16] = test system: TOV-21G (Ovarian Carcinoma); assay: as above
Outline: as §1

[17] = test system: M14 (Melanoma); assay: combination Emax (second highest fraction inhibited in the dose matrix, 72 h); higher = more inhibition; extreme values may be limits of the assay
Outline: as §1

[18] = test system: NCI-H835 (Other Solid Carcinomas); assay: as above
Outline: as §1

[19] = test system: RVH-421 (Melanoma); assay: Bliss excess, mean over the matrix (fraction); higher = more synergy
Outline: as §1

[20] = test system: RVH-421 (Melanoma); assay: combination Emax (second highest fraction inhibited in the dose matrix, 72 h); higher = more inhibition; extreme values may be limits of the assay
Outline: as §1
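Throughout, for Bliss excess, mean over the matrix: after 72 h of two-drug dosing.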

| Compound | Bliss excess [1] | Bliss excess [2] | Bliss excess [3] | Bliss excess [4] | Bliss excess [5] | Bliss excess [6] | Bliss excess [7] | Bliss excess [8] | Bliss excess [9] | Bliss excess [10] | Bliss excess [11] | Bliss excess [12] | Bliss excess [13] | Bliss excess [14] | Bliss excess [15] | Bliss excess [16] | combination Emax [17] | combination Emax [18] | Bliss excess [19] | combination Emax [20] |
| --- | --- | --- | --- | --- | --- | --- | --- | --- | --- | --- | --- | --- | --- | --- | --- | --- | --- | --- | --- | --- |
| CN(C)CCCOc1ccc(-c2ccc3ncc4c(c3c2)n(C2CCOCC2)c(=O)n4C)cn1 [AZD0156] + O=C(c1cc(Cc2n[nH]c(=O)c3ccccc23)ccc1F)N1CCN(C(=O)C2CC2)CC1 [Olaparib] (first compound max 3 µM, partner max 3 µM) | 0.0591 | -0.0189 | -0.035 | 0.0012 | -0.0404 | 0.0435 | 0.0435 | -0.0365 | 0.0772 | 0.0234 | 0.0053 | 0.0008 | 0.0037 | 0.032 | -0.035 | -0.0054 | 0.365 | 0.224 |  |  |
| COc1cccc(OCCCN)c1-c1cc(Nc2cnc(C#N)cn2)n[nH]1 [Prexasertib] + C[C@@H]1COCCN1C2=NC(=NC(=C2)C3(CC3)[S@](=N)(=O)C)C4=C5C=CNC5=NC=C4 [AZD6738] (first compound max 1 µM, 7x7, partner max 10 µM) | 0.0067 | -0.0233 | -0.0529 | 0.0073 | 0.0065 | 0.0035 |  | -0.0016 | -0.0191 | 0.0108 | 0.0548 | -0.0378 | -0.0061 | -0.0712 | 0.0004 | -0.0582 |  | 0.372 | -0.0225 | 0.244 |
| COc1cccc(OCCCN)c1-c1cc(Nc2cnc(C#N)cn2)n[nH]1 [Prexasertib] + O=C(c1cc(Cc2n[nH]c(=O)c3ccccc23)ccc1F)N1CCN(C(=O)C2CC2)CC1 [Olaparib] (first compound max 1 µM, 7x7, partner max 10 µM) | -0.0101 | -0.037 | -0.0459 | 0.0193 | -0.044 | -0.0637 |  | -0.0407 | -0.0073 | -0.0213 | -0.045 | -0.062 | -0.0381 | -0.0533 | -0.0549 | -0.0111 |  | 0.256 | -0.0491 | 0.3 |
| CCc1c2c(nc3ccc(O)cc13)-c1cc3c(c(=O)n1C2)COC(=O)[C@]3(O)CC [SN-38] + CN(C)CCCOc1ccc(-c2ccc3ncc4c(c3c2)n(C2CCOCC2)c(=O)n4C)cn1 [AZD0156] (first compound max 0.3 µM, 7x7, partner max 1 µM) | 0.0168 | -0.047 | 0.0537 | -0.0007 | -0.0537 | -0.0557 |  | -0.0043 | 0.0147 | -0.0017 | -0.0382 | -0.0763 | 0.0267 | 0.0303 | 0.0296 | -0.0349 |  | 0.242 | -0.0576 | 0.191 |
| COc1cccc(OCCCN)c1-c1cc(Nc2cnc(C#N)cn2)n[nH]1 [Prexasertib] + Cc1cc2ncnn2cc1Nc1ncc2c(n1)n(C1CCOCC1)c(=O)n2C [AZD7648] (first compound max 1 µM, 7x7, partner max 10 µM) | 0.0029 | -0.0188 | -0.004 | 0.0253 | -0.0206 | -0.0225 |  | -0.0328 | -0.0275 | -0.027 | -0.0346 | -0.0853 | 0.0054 | -0.0198 | -0.0161 | 0.0057 |  | 0.36 | -0.0417 | 0.344 |
| COc1cccc(OCCCN)c1-c1cc(Nc2cnc(C#N)cn2)n[nH]1 [Prexasertib] + C=CCn1c(=O)c2cnc(Nc3ccc(N4CCN(C)CC4)cc3)nc2n1-c1cccc(C(C)(C)O)n1 [AZD1775] (first compound max 1 µM, partner max 1 µM) | 0.0888 | -0.0223 | -0.0206 | -0.0125 | -0.0589 | 0.0697 |  | 0.106 | 0.101 | 0.0205 | 0.105 | -0.0665 | 0.112 | 0.084 | 0.0656 | -0.0089 |  | 0.684 | -0.0524 | 0.341 |
| CCc1c2c(nc3ccc(O)cc13)-c1cc3c(c(=O)n1C2)COC(=O)[C@]3(O)CC [SN-38] + O=C(c1cc(Cc2n[nH]c(=O)c3ccccc23)ccc1F)N1CCN(C(=O)C2CC2)CC1 [Olaparib] (first compound max 0.3 µM, 7x7, partner max 10 µM) | 0.0588 |  | 0.117 | 0.0193 | 0.0465 | 0.0497 |  | 0.0367 | 0.0934 | 0.0986 | 0.017 | -0.0113 | 0.0007 | 0.0064 | 0.0557 |  |  | 0.268 | -0.0041 | 0.265 |
| COc1cccc2c1C(=O)c1c(O)c3c(c(O)c1C2=O)C[C@@](O)(C(=O)CO)C[C@@H]3O[C@H]1C[C@H](N)[C@H](O)[C@H](C)O1 [Doxorubicin] + Cc1cc2ncnn2cc1Nc1ncc2c(n1)n(C1CCOCC1)c(=O)n2C [AZD7648] (first compound max 1 µM, 7x7, partner max 10 µM) | 0.09 | -0.0356 | 0.044 | 0.0299 | 0.0022 | -0.0075 |  | -0.0228 | 0.0539 | 0.0476 | 0.0207 | -0.0594 | 0.0399 | 0.0667 | -0.0363 | 0.0091 |  | 0.516 | 0.0105 | 0.404 |
| COc1cccc(OCCCN)c1-c1cc(Nc2cnc(C#N)cn2)n[nH]1 [Prexasertib] + CN(C)CCCOc1ccc(-c2ccc3ncc4c(c3c2)n(C2CCOCC2)c(=O)n4C)cn1 [AZD0156] (first compound max 1 µM, 7x7, partner max 1 µM) | 0.0098 | 0.0023 | 0.009 | -0.0104 | -0.0183 | 0.0357 |  | -0.0173 | -0.0023 | -0.0373 | 0.0571 | -0.069 | 0.0017 | -0.0201 | -0.0265 | 0.0588 |  | 0.366 | -0.0325 | 0.314 |
| COc1cccc(OCCCN)c1-c1cc(Nc2cnc(C#N)cn2)n[nH]1 [Prexasertib] + CCc1c2c(nc3ccc(O)cc13)-c1cc3c(c(=O)n1C2)COC(=O)[C@]3(O)CC [SN-38] (first compound max 1 µM, 7x7, partner max 0.3 µM) | -0.0224 | -0.0075 | -0.126 | -0.0146 | -0.0376 | -0.0385 |  | -0.0027 | 0.0152 | -0.0527 | -0.0014 | -0.0292 | -0.0557 | -0.0357 | 0.0515 | -0.122 |  | 0.632 | -0.069 | 0.363 |
